The record followed here is US20230159931A1, “TARGETING THE PALMOTYLATION/DEPALMOTYLATION CYCLE TO TREAT INFLAMMATORY DISEASES” (CORNELL UNIVERSITY, priority 2020, published 2023).

Assay [1] deals with TH17 cell differentiation. Nature of the assay: TH17 cell differentiation of mouse splenocytes by flow cytometry (CD4- and IL-17-positive cells). Type of assay: cell-based. The note with it: cytokine cocktail and different concentrations of ML349 for 4 days. The procedure: FIGS. 3A-3E. The STAT3 palmitoylation-depalmitoylation cycle promotes TH17 cell differentiation. (A) DHHC7 promotes phosphorylation of wild-type STAT3, but not of the C108S mutant, in mouse splenocytes. Left, STAT3 and p-STAT3 blots; right, quantification of the relative p-STAT3 levels. (B) TH17 cell differentiation was quantified in the splenocyte samples in A by flow cytometry. […] Mouse splenocytes were treated with a cytokine cocktail (3 ng ml^−1 TGF-β, 40 ng ml^−1 IL-6, 30 ng ml^−1 IL-23, 20 ng ml^−1 TNF and 10 ng ml^−1 IL-1β) and different concentrations of ML349 for 4 days, then collected and analysed by flow cytometry to detect CD4- and IL-17-positive cells. (D) DHHC7 knockout in splenocytes inhibits TH17 cell differentiation. Wild-type and DHHC7-knockout mouse splenocytes were treated with a cytokine cocktail for 4 days to initiate differentiation, then the cells were collected and analyse by flow cytometry to detect CD4- and IL-17-positive cells. (E) Left, STAT3 and p-STAT3 blots of wild-type and DHHC7-knockout splenocytes. Right, quantification of the relative p-STAT3 levels. Data are mean±s.e.m. **P<0.01.
Splenocytes were isolated from mice by classic methods. […]
For FACS analysis, flow cytometry was performed using 1×10^6 cells per sample. […] The cells were detected by Attune Flow Cytometer (Thermo Fisher) and analysed with FCS Express 6 software (De Novo Software).
On the technique in general: In flow cytometry, cells or beads pass a laser one at a time.

The next assay relates to NZB/W F1 female mice. In words: Lupus nephrosis mouse model (proteinuria analysis). Type of assay: in vivo. As to conditions: 25 mg/Kg IP three times per week for 8 weeks, from 25-week age. The method, then: FIGS. 17A-17B. Lupus Nephrosis Mouse Model: APT2 inhibitor ML349 decreases protein concentration in the mouse urine. (A) Protein concentration in urine (all data points), (B) Protein concentration in urine (averaged, with error bars). NZB/W F1 female mice at 25-week were administered via IP injection with either vehicle solution (DMSO+PBS) or APT2 inhibitor ML349 at 25 mg/Kg three times per week for 8 weeks. After 4 weeks of treatment, mice were evaluated for lupus incidence weekly through proteinuria analysis by collecting the urines and measuring the protein concentrations in the urine.
NZB/W F1 female mice at 25-week were administered via IP injection with either vehicle solution (DMSO+PBS) or APT2 inhibitor ML349 at 25 mg/Kg three times per week for 8 weeks. After 4 weeks of treatment, mice were evaluated for lupus incidence weekly through proteinuria analysis by collecting the urines and measuring the protein concentrations in the urine. […] This was the first time that the inventors did this experiment and after the experiment began, the inventors noticed that at 25 weeks, the disease phenotype was already very severe. It is expected that if the ML349 treatment is begun earlier, the effect might be more obvious and significant.

“Also recorded” adds a separate entry of the source.

As for `COc1ccc(N2CCN(C(=O)c3cc4c(s3)-c3ccccc3S(=O)(=O)C4)CC2)cc1` [ML349], the “differentiation of TH17 cells” value in assay [1] is given as “significantly decreased; also recorded: decreases TH17 cell differentiation in a dose-dependent manner”. For the same molecule, in the assay with NZB/W F1 female mice, the “protein concentrations in the urine” value is “decrease”.
